Test results reported in article PMC4994268, “4-aroylpiperidines and 4-(α-hydroxyphenyl)piperidines as selective sigma-1 receptor ligands: synthesis, preliminary pharmacological evaluation and computational studies” (Chemistry Central Journal, 2016).
Counter-ions that a name gives are not always drawn.

How the values were obtained:
σ1 receptor [1] = experiment: Sigma receptor binding, σ1 sites, [3H](+)-pentazocine competition in rat liver membrane homogenates; conditions: ratio of Ki σ2 to Ki σ1
Experimental: (§1) These experiments were performed as described by Jinbin et al. with some modification. Different concentrations of test samples were achieved by diluting stock solutions with a solution containing 50 mM Tris–HCl, 150 mM NaCl and 100 mM EDTA at pH 7.4. Rat liver membrane homogenates (~300 μg protein) were diluted with 50 mM Tris–HCl buffer, pH 8.0 and incubated in a total volume of 150 μL with the radioligand at 25 °C in 96 well plates. The incubation time was 60 min for test compounds and 120 min for [^3H] DTG and [^3H] (+)-pentazocine.
(§2) It is worth mentioning that, this was done one at a time. The final concentration of the radioligand in each assay was ~1 nM for [^3H] test compounds and ~5 nM for [^3H]
(§3) The reaction was started by adding 0.2 mL of the membrane preparation to the 50 mM Tris–HCl (pH 8.0) buffer containing ^3H-labeled ligand with a final concentration of 5 nM and cold ligand ranging from 0.01 to 0.1 mM in a final volume of 1.0 mL. Incubations were carried out at […] in the binding study with [^3H] […] DTG. Inhibitor concentrations ranging from 0.1 nM to 10 μM were added to acquire the inhibition curves. After the reaction was completed, the samples were harvested, washed three times, and the bound radioactivity counted and analyzed.

σ1 receptor [2] = molecular target: T1, σ1 receptor (Rattus norvegicus, UniProt Q9R0C9); experiment: as above; conditions: for Ki: HCl salts tested, rat liver membrane homogenates
T1 construct: Rat liver membrane homogenates (~300 μg protein) were diluted with 50 mM Tris–HCl buffer; from tissue; host or cells: rat liver membrane homogenates
Experimental: as §1, §2, §3

σ2 receptor = molecular target: T2, σ2 receptor (Rattus norvegicus, UniProt Q5U3Y7); experiment: Sigma receptor binding, σ2 sites, [3H]DTG competition with σ1 sites masked by (+)-pentazocine, rat liver membrane homogenates; conditions: HCl salts tested
T2 construct: Rat liver membrane homogenates (~300 μg protein) were diluted with 50 mM Tris–HCl buffer; from tissue; host or cells: rat liver membrane homogenates
T2 sequence (Q5U3Y7 1-176): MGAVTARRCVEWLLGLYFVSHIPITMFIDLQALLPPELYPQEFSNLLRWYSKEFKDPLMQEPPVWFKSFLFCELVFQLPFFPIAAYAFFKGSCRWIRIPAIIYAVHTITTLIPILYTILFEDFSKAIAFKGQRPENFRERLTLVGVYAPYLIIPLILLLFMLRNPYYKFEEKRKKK
Experimental: as §1
It is worth mentioning that, this was done one at a time. The final concentration of the radioligand in each assay was ~1 nM for [^3H] test compounds and ~5 nM for [^3H] […]

σ1 receptor [3] = conditions: reference ligands in Table 1; cited from earlier work

T1 sequence (Q9R0C9 whole entry): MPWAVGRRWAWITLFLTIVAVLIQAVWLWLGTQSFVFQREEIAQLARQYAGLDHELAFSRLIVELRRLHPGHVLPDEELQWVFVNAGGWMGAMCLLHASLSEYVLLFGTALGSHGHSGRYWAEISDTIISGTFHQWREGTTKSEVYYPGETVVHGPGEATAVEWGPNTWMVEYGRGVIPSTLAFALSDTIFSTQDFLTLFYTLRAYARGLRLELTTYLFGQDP

| Compound | melting point | Selectivity ratio (Ki σ2/σ1) (σ1 receptor [1]) | Ki (σ1 receptor [2]) | Ki (σ2 receptor) | increase in σ1 receptor affinity on reduction of the carbonyl compound to the corresponding alcohol (σ1 receptor [2]; alcohol 8 versus ketone 7) | decrease in σ1 binding affinity on reduction of the carbonyl to the corresponding alcohol (σ1 receptor [2]; alcohol 8 versus ketone 7) | Ki (σ1 receptor [3]) |
| --- | --- | --- | --- | --- | --- | --- | --- |
| O=C(c1ccc(F)cc1)C1CCN(Cc2ccccc2[N+](=O)[O-])CC1 (as salt: HCl) [Compound 7d, 4-(4-fluorobenzoyl)-1-[(2-nitrophenyl)methyl]piperidine] | 95 to 97 °C | – | – | – | – | – | – |
| Cc1ccc(CN2CCC(C(=O)c3ccc(F)cc3)CC2)cc1 (as salt: HCl) [Compound 7f, 4-(4-fluorobenzoyl)-1-[(4-methylphenyl)methyl]piperidine] | 108 to 110 °C | – | – | – | – | – | – |
| O=C(c1ccc(F)cc1)C1CCN(Cc2ccc(F)cc2)CC1 [Compound 7a, 4-(4-fluorobenzoyl)-1-[(4-fluorophenyl)methyl]piperidine] | – | 75 | 2.96 ± 0.5 nM | 222 ± 8 nM | – | – | – |
| O=C(c1ccc(F)cc1)C1CCN(Cc2ccc(Cl)c(Cl)c2)CC1 [Compound 7b, 1-[(3,4-dichlorophenyl)methyl]-4-(4-fluorobenzoyl)piperidine] | – | – | > 434 nM | > 854 nM | – | – | – |
| O=C(c1ccc(F)cc1)C1CCN(Cc2ccc(Cl)cc2)CC1 [Compound 7c, 1-[(4-chlorophenyl)methyl]-4-(4-fluorobenzoyl)piperidine] | – | 93 | 5.98 ± 0.41 nM | 554 ± 34.2 nM | – | – | – |
| O=C(c1ccc(F)cc1)C1CCN(Cc2ccccc2[N+](=O)[O-])CC1 [Compound 7d, 4-(4-fluorobenzoyl)-1-[(2-nitrophenyl)methyl]piperidine] | – | – | > 434 nM | > 854 nM | – | – | – |
| O=C(c1ccc(F)cc1)C1CCN(Cc2ccc(Br)cc2)CC1 [Compound 7e, 1-[(4-bromophenyl)methyl]-4-(4-fluorobenzoyl)piperidine] | – | > 610 | 1.4 ± 0.5 nM | > 854 nM | – | – | – |
| Cc1ccc(CN2CCC(C(=O)c3ccc(F)cc3)CC2)cc1 [Compound 7f, 4-(4-fluorobenzoyl)-1-[(4-methylphenyl)methyl]piperidine] | – | 13 | 11.6 ± 0.26 nM | 151 ± 7.79 nM | – | – | – |
| c1ccc(CN2CCC3(CCc4ccccc4S3)CC2)cc1 [Spipethiane, 1′-Benzyl-3,4-dihydrospiro[2H-1-benzothiopyran-2,4′-piperidine]] | – | – | – | – | – | – | 0.5 nM |

Continued, in another order:

| melting point | Selectivity ratio (Ki σ2/σ1) (σ1 receptor [1]) | Ki (σ1 receptor [2]) | Ki (σ2 receptor) | increase in σ1 receptor affinity on reduction of the carbonyl compound to the corresponding alcohol (σ1 receptor [2]; alcohol 8 versus ketone 7) | decrease in σ1 binding affinity on reduction of the carbonyl to the corresponding alcohol (σ1 receptor [2]; alcohol 8 versus ketone 7) | Compound | Ki (σ1 receptor [3]) |
| --- | --- | --- | --- | --- | --- | --- | --- |
| – | > 606 | 1.41 ± 0.22 nM | > 854 nM | twofold | – | OC(c1ccc(F)cc1)C1CCN(Cc2ccc(F)cc2)CC1 (stereo not drawn) [Compound 8a, (4-fluorophenyl)({1-[(4-fluorophenyl)methyl]piperidin-4-yl})methanol] | – |
| – | – | > 434 nM | > 854 nM | – | – | OC(c1ccc(F)cc1)C1CCN(Cc2ccc(Cl)c(Cl)c2)CC1 (stereo not drawn) [Compound 8b, {1-[(3,4-dichlorophenyl)methyl]piperidin-4-yl}(4-fluorophenyl)methanol] | – |
| – | > 343 | 2.49 ± 0.24 nM | > 854 nM | twofold | – | OC(c1ccc(F)cc1)C1CCN(Cc2ccc(Cl)cc2)CC1 (stereo not drawn) [Compound 8c, {1-[(4-chlorophenyl)methyl]piperidin-4-yl}(4-fluorophenyl)methanol] | – |
| – | 2 | 527 ± 69 nM | > 854 nM | – | – | O=[N+]([O-])c1ccccc1CN1CCC(C(O)c2ccc(F)cc2)CC1 (stereo not drawn) [Compound 8d, (4-fluorophenyl)({1-[(2-nitrophenyl)methyl]piperidin-4-yl})methanol] | – |
| – | > 164 | 5.22 ± 0.3 nM | > 854 nM | – | fivefold | OC(c1ccc(F)cc1)C1CCN(Cc2ccc(Br)cc2)CC1 (stereo not drawn) [Compound 8e, {1-[(4-bromophenyl)methyl]piperidin-4-yl}(4-fluorophenyl)methanol] | – |
| – | > 589 | 1.45 ± 0.4 nM | > 854 nM | 11 fold | – | Cc1ccc(CN2CCC(C(O)c3ccc(F)cc3)CC2)cc1 (stereo not drawn) [Compound 8f, (4-fluorophenyl)({1-[(4-methylphenyl)methyl]piperidin-4-yl})methanol] | – |
| – | – | > 434 nM | > 854 nM | – | – | O=[N+]([O-])c1ccccc1CN1CCC(C(NCc2cccc(Br)c2)c2ccc(F)cc2)CC1 (stereo not drawn) [Compound 9d, [(3-bromophenyl)methyl][(4-fluorophenyl)({1-[(2-nitrophenyl)methyl]piperidin-4-yl})methyl]amine] | – |
| – | > 289 | 2.95 ± 0.57 nM | > 854 nM | – | – | Fc1ccc(C(NCc2cccc(Br)c2)C2CCN(Cc3ccc(Br)cc3)CC2)cc1 (stereo not drawn) [Compound 9e, [(3-bromophenyl)methyl]({1-[(4-bromophenyl)methyl]piperidin-4-yl}(4-fluorophenyl)methyl)amine] | – |
